This note sets out measurements from BindingDB's records for doi:10.1021/jm9000242 (Bristol Myers Squibb, 2009).

This test deals with T1, Corticotropin-releasing factor receptor 1 (Rattus norvegicus, UniProt P35353).
T1 sequence (P35353 whole entry): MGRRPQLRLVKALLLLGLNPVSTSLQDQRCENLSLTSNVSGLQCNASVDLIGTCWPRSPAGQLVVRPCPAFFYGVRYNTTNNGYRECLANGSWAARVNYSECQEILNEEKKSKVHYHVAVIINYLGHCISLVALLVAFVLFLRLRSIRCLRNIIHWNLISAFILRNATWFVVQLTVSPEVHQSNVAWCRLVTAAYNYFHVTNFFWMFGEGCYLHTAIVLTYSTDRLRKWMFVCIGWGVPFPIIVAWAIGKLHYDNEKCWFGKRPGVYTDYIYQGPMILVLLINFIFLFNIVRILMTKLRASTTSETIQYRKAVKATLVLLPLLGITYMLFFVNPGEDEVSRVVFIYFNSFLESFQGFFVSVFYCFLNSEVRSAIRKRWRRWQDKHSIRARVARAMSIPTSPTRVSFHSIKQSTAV
The test can be described thus: In Vitro Binding Autoradiography. On the procedure: Naive rats were sacrificed by decapitation, and the brain and pituitary were collected. Slide-mounted brain sections were preincubated in an assay solution containing [125I]oCRF for 2 h at room temperature. Concentration-related displacement of test compound was assessed by including the compound in the incubation solution. The adjacent sections were incubated under the same conditions in the presence of 1 uM alpha-helical CRF for defining nonspecific binding for CRF receptor. Nonspecific binding for CRF1 receptors was defined by 1 uM DMP696 or CP-154,526. After incubation, the sections were rinsed, dried, and then placed in cassettes against iodine-sensitive storage phosphor-imaging screens (PerkinElmer Life Sciences), and the screens were then digitally scanned with a Cyclone storage phosphor-imaging system (PerkinElmer Life Sciences). Captured storage phosphor images were analyzed with OptiQuant Acquisition and Analysis software (PerkinElmer Life Sciences).

The IC50 is the midpoint of a concentration-inhibition curve. High values mean a need for much substance, low ones inhibition by little substance. For `CCCCN(C)c1nc(C)nc2c(-c3c(C)cc(OC)cc3C)c(C)nn12` [Pyrazolo[1,5-a]-1,3,5-triazine, 12-32], the IC50 (25 °C) amounted to 4.22 nM.

Under “pH 7.2, 23 °C”, `CC[C@@H](C)Nc1nc(C)nc2c(-c3c(C)cc(OC)cc3OC)c(C)nn12` [Pyrazolo[1,5-a]-1,3,5-triazine, 12-16] displayed a concentration for half-maximal inhibition (IC50) of 5.7 nM. Regarding `CCCN(CC1CC1)c1nc(C)nc2c(-c3c(C)cc(OC)cc3OC)c(C)nn12` [Pyrazolo[1,5-a]-1,3,5-triazine, 12-22], the IC50 (pH 7.2, 23 °C) was 1.48 nM.
